The record followed here is article PMC9367672, “In vitro differences in toddalolactone metabolism in various species and its effect on cytochrome P450 expression” (Pharmaceutical Biology, 2022).

Data set [1] in a line: Enzyme kinetics of toddalolactone metabolism in human liver microsomes (oxidative metabolism and glucuronidation). Format: in vitro ADME. The settings on record: human, liver microsomes, pH 7.4, HLMs, Vmax/Km. The method, then:
(§1) The CYP reaction system (200 μL) consisted of 0.1 M potassium phosphate buffer (pH 7.4), an NADPH-generating system (1 mM NADPH, 10 mM G-6-P, 1 unit/mL G-6-PD, 4 mM MgCl2), and liver microsomes or recombinant human microsomes (supersomes). Each of the in vitro enzymatic assays using liver microsomes was linear with respect to incubation time and amount of protein. After a pre-incubation at 37 °C for 3 min, the reactions were initiated by adding NADP^+. After incubating for 60 min, the reactions were quenched by adding 200 μL of ice-cold acetonitrile. Samples were centrifuged at 18,000 g for 15 min at 4 °C and 10 μL of supernatant was analyzed using an HPLC system. NADPH or CYP enzyme sources were not used in the control group to ensure that the metabolic reactions were CYP- and NADPH-dependent. All incubation assays were completed in triplicate. The data are presented as mean ± standard deviation (SD).
(§2) In the UGT reaction system, liver microsomes were incubated in 200 μL of the reaction system containing 4 mM UDPGA, 5 mM MgCl2, 20 µg/mL alamethicin, and 50 mM Tris-HCl buffer (pH 7.4). After pre-incubation at 37 °C for 3 min, UDPGA was added to the mixture to initiate the reactions. The mixtures were incubated at 37 °C for 60 min, followed by the addition of 200 μL of cold methanol to terminate the reactions. After centrifugation at 18,000 g for 15 min, 10 μL of the supernatant was analyzed by HPLC.
(§3) The enzyme kinetics of toddalolactone in oxidative metabolism and glucuronidation were determined by incubating liver microsomes (0.2 mg/mL) or CYPs (15 nM) with different concentrations of toddalolactone (1–200 μM). The kinetic parameters including Km and Vmax were obtained by fitting the experimental data to the Michaelis–Menten equation (Equation (1)), biphasic kinetics equation (Equation (2)), or substrate inhibition equation (Equation (3)) (He et al. [2018]), and the results were graphically represented on Eadie–Hofstee plots. The in vitro intrinsic clearance (CLint) was calculated based on the Vmax/Km ratio. Metabolites were quantified using the standard curve for toddalolactone because of the absence of metabolite standards. All incubations were repeated in three independent experiments. Kinetic constants were expressed with mean ± SD: (1) V=Vmax×[S]/Km+[S] (2) V=Vmax1×[S]/Ks1+[S]+Vmax2×[S]/Ks2+[S] (3) V=Vmax×[S]/Ks+[S]+[S]^2/Ksi where v is the rate of reaction, Vmax is the estimated maximum velocity, [S] is the substrate concentration, and Km is the affinity constant of the substrate; Vmax1 and Vmax2 represent the estimated maximum velocity of the two metabolic phases; Ks1 and Ks2 represent the affinity constants for two metabolic phases; Ks and Ksi are the substrate affinity and inhibition constants, respectively.
(§4) The enzyme kinetics in oxidative metabolism and glucuronidation of toddalolactone were studied, and preliminary experiments were performed to ensure that metabolites were formed in the linear range of both reaction time and microsomal protein concentration. The metabolite with the largest peak area was used to calculate the kinetic parameter values (Km, Vmax and CLint). Based on the results of toddalolactone metabolism in different species, the kinetic parameter values in RLMs, DLMs, MLMs, HLMs, RAMs, MIMs, PLMs, CYP1A1 and CYP3A5 were calculated using P4, P4, P4, P4, P2, P2, P4, P4 and P4 data in oxidative metabolism, respectively. In the glucuronidation reaction, the kinetic parameter values in RLMs, MLMs, HLMs, RAMs and PLMs were calculated using P5, P6, P6, P6 and P5 data, respectively.
(Liver microsomes are a subcellular fraction often used to study metabolism.)

The next data set relates to HLMs. The data set is described as above. Type of data set: in vitro ADME. The settings on record: HLMs; for V max: toddalolactone 1–200 μM. On the procedure:
as §1, §2, §3, §4

Data set [2] can be described thus: Metabolic stability assessment in mini pig liver microsomes. Type of data set: in vitro ADME. The settings on record: pH 7.4, PLMs, toddalolactone 20 μM, 0-90 min. On the procedure:
as §1, with “NADPH or CYP enzyme sources were not used in the control group to ensure that the metabolic reactions were CYP- and NADPH-dependent. All incubation assays were completed in triplicate. The data are presented as mean ± standard deviation (SD).” left out
In the UGT reaction system, liver microsomes were incubated in 200 μL of the reaction system containing 4 mM UDPGA, 5 mM MgCl2, 20 µg/mL alamethicin, and 50 mM Tris-HCl buffer (pH 7.4). […] After centrifugation at 18,000 g for 15 min, 10 μL of the supernatant was analyzed by HPLC.
Toddalolactone (20 μM) was incubated with different liver microsomes, including HLMs, DLMs, PLMs, MLMs, RAMs, RLMs or MIMs in oxidative metabolism and glucuronidation reaction systems. […] The mixtures were centrifuged at 18,000 g for 15 min at 4 °C and then 10 μL of the supernatant was analyzed by HPLC. […]
The peak areas of toddalolactone and its metabolites were detected using a HPLC system (Shimadzu, Kyoto, Japan). […]

Data set [3] can be described thus: Enzyme kinetics of toddalolactone metabolism in dog liver microsomes (oxidative metabolism). Type of data set: in vitro ADME, beagle dog. As to conditions: beagle, dog, liver microsomes, pH 7.4; DLMs; P450-catalyzed oxidation; P4 formation; Vmax/Km. On the procedure:
as §1
(§5) The enzyme kinetics of toddalolactone in oxidative metabolism and glucuronidation were determined by incubating liver microsomes (0.2 mg/mL) or CYPs (15 nM) with different concentrations of toddalolactone (1–200 μM). […] The in vitro intrinsic clearance (CLint) was calculated based on the Vmax/Km ratio. Metabolites were quantified using the standard curve for toddalolactone because of the absence of metabolite standards. […]
as §4, with “The metabolite with the largest peak area was used to calculate the kinetic parameter values (Km, Vmax and CLint).” left out

The subject of the next data set is DLMs. The description is as above. Type of data set: in vitro ADME, beagle dog. As to conditions: P450-catalyzed oxidation, P4 formation. The method, then:
as §1, §5
as §4, with “The metabolite with the largest peak area was used to calculate the kinetic parameter values (Km, Vmax and CLint).” left out

Another data set concerns MLMs. As to the kind of experiment: Enzyme kinetics of toddalolactone metabolism in monkey liver microsomes (oxidative metabolism and glucuronidation). Type of data set: in vitro ADME. The settings on record: MLMs; for V max: toddalolactone 1–200 μM. The method, then:
as §1, §2, §3, §4

Assay in data set [4]: as above
Format: in vitro ADME. As to conditions: monkey, liver microsomes, pH 7.4, MLMs, Vmax/Km. The method, then: as §1, §2, §3, §4

The mark [5] stands for this setting: P450-catalyzed oxidation, P4 formation.
Setting [6] is: glucuronide metabolism, P6 formation.

Like-named read-outs stand apart in the source and are kept apart here.

With `COc1cc2oc(=O)ccc2c(OC)c1C[C@@H](O)C(C)(C)O` [toddalolactone], the microsomal CLint in data set [1] (setting [5]) came out at 0.14 µL/min/mg; in data set [1] (setting [6]) it was 0.75 µL/min/mg; in data set [3], 0.19 µL/min/mg; in data set [4] (setting [5]), 0.63 µL/min/mg; in data set [4] (setting [6]) it was 1.21 µL/min/mg. Further, the K m with HLMs (setting [5]) was found to be 244.63 ± 78.99 µM; with HLMs (setting [6]), 66.33 ± 20.46 µM; in the data set with DLMs, 148.93 ± 38.37 µM; in the data set with MLMs (setting [5]), 255.67 ± 58.29 µM; in the data set with MLMs (setting [6]), 154.51 ± 42.46 µM. The V max stood at 35.07 ± 7.16 pmol/min/mg protein in the data set with HLMs (setting [5]); 50.16 ± 8.75 pmol/min/mg protein in the data set with HLMs (setting [6]); 29.76 ± 7.27 pmol/min/mg protein in the data set on DLMs (toddalolactone 1–200 μM); 161.4 ± 25.73 pmol/min/mg protein in the data set with MLMs (setting [5]); 187.53 ± 27.77 pmol/min/mg protein in the data set on MLMs (setting [6]). Further, the half-life at 20 μM was determined as 5.12 ± 0.467 h in data set [2] (CYP incubation system, read-out: half-life value (T1/2)) and 1.42 ± 0.0717 h in data set [2] (UGT incubation system, read-out: T1/2 value).
